Assays:
HCV genotype 1b replicon = assay: HCV replicon assay, genotype 1b (cell ELISA for NS3/4A); format: cell-based, hepatitis C virus; conditions: Hepatitis C virus, 96 h, read-out: 1b IC50 (nM), genotype 1b replicon cells, 96 hours incubation, NS3/4A ELISA
How it was run: (§1)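 Stable replicon cells plated with a compound dilution series without G418 and incubated 96 h, then lysed. Replicon RNA measured indirectly by cell ELISA with an NS3/4A-specific antibody. IC50 calculated relative to DMSO control by four-parameter fit.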

HCV genotype 1a replicon = assay: HCV replicon assay, genotype 1a (cell ELISA for NS3/4A); format: cell-based, hepatitis C virus; conditions: Hepatitis C virus, 96 h, read-out: 1a IC50 (nM), genotype 1a replicon cells, 96 hours incubation, NS3/4A ELISA
How it was run: as §1

Compound	IC50 (HCV genotype 1b replicon) [nM]	IC50 (HCV genotype 1a replicon) [nM]
CNC(=O)c1c(-c2ccc(F)cc2)oc2cc(N(C)S(C)(=O)=O)c(-c3ccc4c(n3)-c3cc5c(F)cccc5n3C(CN3CC(F)C3)C4)cc12 (stereo not drawn) [Example 90, 5-(11-fluoro-6-((3-fluoroazetidin-1-yl)methyl)-5,6-dihydroindolo[1,2-h][1,7]naphthyridin-2-yl)-2-(4-fluorophenyl)-N-methyl-6-(N-methylmethylsulfonamido)benzofuran-3-carboxamide]	2.79	7.23
CNC(=O)c1c(-c2ccc(F)cc2)oc2cc(N(C)S(C)(=O)=O)c(-c3ccc4c(n3)-c3cc5c(F)cccc5n3C(CN3CC(F)(F)C3)C4)cc12 (stereo not drawn) [Example 91]	9.23	27.6
CNC(=O)c1c(-c2ccc(F)cc2)oc2cc(N(C)S(C)(=O)=O)c(-c3ccc4c(n3)-c3cc5c(F)cccc5n3C(CN3CCC3)C4)cc12 (stereo not drawn) [Example 92]	2.55	46.5
CNC(=O)c1c(-c2ccc(F)cc2)oc2cc(N(C)S(C)(=O)=O)c(-c3ccc4c(n3)-c3cc5c(F)cccc5n3C(CN3CC[C@@H](F)C3)C4)cc12 (stereo partly drawn) [Example 94]	10.8	34
CNC(=O)c1c(-c2ccc(F)cc2F)oc2cc(N(C)S(C)(=O)=O)c(-c3ccc4c(n3)-c3cc5c(F)cccc5n3C(CN3CC(F)C3)C4)cc12 (stereo not drawn) [Example 95]	7.53	8.91
CNC(=O)c1c(-c2ccc(F)cc2)oc2cc(N(C)S(C)(=O)=O)c(-c3ccc4c(n3)-c3cc5c(F)cccc5n3C(CF)C4)cc12 (stereo not drawn) [Example 96, 5-(11-fluoro-6-(fluoromethyl)-5,6-dihydroindolo[1,2-h][1,7]naphthyridin-2-yl)-2-(4-fluorophenyl)-N-methyl-6-(N-methylmethylsulfonamido)benzofuran-3-carboxamide]	3.18	7.89
CNC(=O)c1c(-c2ccc(F)cc2)oc2cc(N(C)S(C)(=O)=O)c(-c3ccc4c(n3)-c3cc5c(F)cccc5n3CC43CC3)cc12 [Example 97, 5-(11′-fluoro-6′H-spiro[cyclopropane-1,5′-indolo[1,2-h][1,7]naphthyridin]-2′-yl)-2-(4-fluorophenyl)-N-methyl-6-(N-methylmethylsulfonamido)benzofuran-3-carboxamide]	9.98	10.7
CNC(=O)c1c(-c2ccc(F)cc2)oc2cc(N(C)S(C)(=O)=O)c(-c3ccc4c(n3)-c3cc5c(F)cccc5n3CC=C4)cc12 [Example 98, 5-(12-fluoro-7H-pyrido[2′,3′:3,4]azepino[1,2-a]indol-2-yl)-2-(4-fluorophenyl)-N-methyl-6-(N-methylmethylsulfonamido)benzofuran-3-carboxamide]	8.65	4.17
CNC(=O)c1c(-c2ccc(F)cc2)oc2cc(N(C)S(C)(=O)=O)c(-c3ccc4c(n3)-c3cc5c(F)cccc5n3CCCC4)cc12 [Example 99, 5-(13-fluoro-5,6,7,8-tetrahydropyrido[2′,3′:3,4]azocino[1,2-a]indol-2-yl)-2-(4-fluorophenyl)-N-methyl-6-(N-methylmethylsulfonamido)benzofuran-3-carboxamide]	7.17	6.5

Source: patent US9243002B2, “Tetracyclic heterocycle compounds and methods of use thereof for the treatment of hepatitis C” (priority 2013, dated 2016)
